The text below walks through data of article PMC4608799, “Structural and Functional Analysis of Murine Polyomavirus Capsid Proteins Establish the Determinants of Ligand Recognition and Pathogenicity” (PLoS Pathogens, 2015).

Molecules are shown by their SMILES.

Test [1] addresses T1, RA VP1 (Mouse polyomavirus (strain p16 small-plaque), UniProt P49302).
T1 construct: residues 33-316, homopentamer; N-terminal His-tag cut by thrombin leaving GSHM; pET15b, E. coli BL21
The experiment in a line: concentration-dependent crystal soaking, electron density quantified. The settings on record: 1.5 M ammonium sulfate (competes with the Neu5Ac carboxylate), 20 C crystals, 30 min soak. Type of test: binding.

The target in test [2] is T2, PTA VP1 (Alphapolyomavirus muris, UniProt A0A247D727).
T2 construct: residues 33-316, homopentamer; N-terminal His-tag cut by thrombin leaving GSHM; pET15b, E. coli BL21
The experiment in a line: X-ray crystal structure of complex. The settings on record: receptor-binding pocket.

On to `CC(=O)N[C@H]1[C@H](O[C@H]2[C@@H](O)[C@@H](CO)O[C@@H](O[C@H]3[C@H](O)[C@@H](O)C(O)O[C@@H]3CO)[C@@H]2O)O[C@H](CO[C@]2(C(=O)O)C[C@H](O)[C@@H](NC(C)=O)[C@H]([C@H](O)[C@H](O)CO)O2)[C@@H](O)[C@@H]1O[C@@H]1O[C@H](CO)[C@H](O)[C@H](O[C@]2(C(=O)O)C[C@H](O)[C@@H](NC(C)=O)[C@H]([C@H](O)[C@H](O)CO)O2)[C@H]1O` (some centres unmarked) [DSLNT], for which the “concentration-dependent crystal soaking, electron density quantified” value in test [1] was “Electron density of GT1a, GD1a, and DSLNT in RA VP1”.

Regarding `CC(=O)N[C@H]1[C@H]([C@H](O)[C@H](O)CO)O[C@@](O[C@H](CO)[C@@H](O)[C@@H]2O[C@@](O[C@H]3[C@@H](O)[C@@H](CO)O[C@@H](O[C@H]4[C@H](O)[C@@H](O)C(O)O[C@@H]4CO)[C@@H]3O)(C(=O)O)C[C@H](O)[C@H]2NC(C)=O)(C(=O)O)C[C@@H]1O` (some centres unmarked) [GD3, glycan portion of GD3], the “X-ray crystal structure of complex” value in test [2] was “the crystal structure of PTA with the glycan portion of GD3 shows an identical binding mechanism”.
